Data on one compound can be found in ChEMBL document CHEMBL5608166, “Current therapy in amyotrophic lateral sclerosis (ALS): A review on past and future therapeutic strategies” (Eur J Med Chem, 2024).

pIC50: −log10 of the molar value.

In this experiment the target is Tau-tubulin kinase 2 (Homo sapiens, UniProt Q6IQ55). Put plainly: Inhibition of TTBK2 (unknown origin).
Chain of Tau-tubulin kinase 2 (Q6IQ55 whole entry): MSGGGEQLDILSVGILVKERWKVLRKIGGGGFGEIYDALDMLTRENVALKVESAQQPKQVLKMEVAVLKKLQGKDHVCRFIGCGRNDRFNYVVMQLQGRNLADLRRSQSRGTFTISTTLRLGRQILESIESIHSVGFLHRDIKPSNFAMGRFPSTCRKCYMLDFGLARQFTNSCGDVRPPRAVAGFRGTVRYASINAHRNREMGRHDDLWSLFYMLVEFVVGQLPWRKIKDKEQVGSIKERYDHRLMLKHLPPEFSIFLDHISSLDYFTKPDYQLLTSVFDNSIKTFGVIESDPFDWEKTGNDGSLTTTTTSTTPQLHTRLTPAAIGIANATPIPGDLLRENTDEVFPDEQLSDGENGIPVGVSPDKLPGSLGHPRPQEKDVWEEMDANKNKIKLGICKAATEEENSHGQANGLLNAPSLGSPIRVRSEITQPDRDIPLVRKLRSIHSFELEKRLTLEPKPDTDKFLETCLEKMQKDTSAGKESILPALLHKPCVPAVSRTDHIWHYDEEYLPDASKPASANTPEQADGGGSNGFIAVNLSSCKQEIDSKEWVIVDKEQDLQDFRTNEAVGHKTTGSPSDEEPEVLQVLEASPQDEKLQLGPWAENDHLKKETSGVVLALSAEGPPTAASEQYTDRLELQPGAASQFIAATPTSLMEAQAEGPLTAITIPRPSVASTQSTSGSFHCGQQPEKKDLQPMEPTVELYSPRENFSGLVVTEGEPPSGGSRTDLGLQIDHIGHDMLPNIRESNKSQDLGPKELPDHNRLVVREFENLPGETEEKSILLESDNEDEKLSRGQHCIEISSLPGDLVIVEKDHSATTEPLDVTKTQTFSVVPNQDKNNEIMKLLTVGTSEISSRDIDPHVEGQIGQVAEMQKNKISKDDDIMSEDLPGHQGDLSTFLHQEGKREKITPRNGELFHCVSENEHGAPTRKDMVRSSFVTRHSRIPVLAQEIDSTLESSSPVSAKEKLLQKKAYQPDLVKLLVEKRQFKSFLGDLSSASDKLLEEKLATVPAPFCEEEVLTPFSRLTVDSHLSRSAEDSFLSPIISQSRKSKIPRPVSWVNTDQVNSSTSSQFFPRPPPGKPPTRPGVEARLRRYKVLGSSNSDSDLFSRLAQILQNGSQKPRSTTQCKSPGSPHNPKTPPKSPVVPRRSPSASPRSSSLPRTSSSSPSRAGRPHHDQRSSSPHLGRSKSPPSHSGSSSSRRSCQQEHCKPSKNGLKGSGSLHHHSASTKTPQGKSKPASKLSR

In turn, `CC1(N)CCN(Cc2ccn3ncnc(Nc4cc(O)cc(Br)c4)c23)CC1` showed a negative-log IC50 (pIC50) of 8.80.
